Where “and” joins values, the source holds several entries; their conditions need not be identical. Equal values may be shown once.
Assays:
[1] = tested on: cats with FIC (Feline Idiopathic Cystitis); assay: VSOM in cats with Feline Idiopathic Cystitis; type: in vivo, cat
Experimental: The effectiveness and safety of a single intravesical instillation with RTX was evaluated for the management of clinical and behavioral signs associated with non-obstructive FIC in cats. The primary effectiveness endpoint was the improvement in a Veterinary-specific Outcome Measure (VSOM) and Cystitis Events Survey on day 28.
The total VSOM is the sum of three individual VSOM scores that each have an integer value in the range of 1 to 5. Each individual VSOM score corresponds to a clinical sign/activity/behavior selected as relevant to FIC for an individual cat by the cat's owner or legal representative with the help of the Investigator. An example of a clinical sign/activity/behavior is pain or resentfulness on palpation. The minimum possible score for each individual VSOM score is 1, which indicates no problem, and the maximum is 5, which indicates an impossible activity/behavior or a maximum severity clinical sign. The minimum and maximum total VSOM scores are 3 and 15. On screening days (e.g., Day 0 and Day 28), the Investigator completed the VSOM questionnaire and assigned a score to each of the 3 clinical signs/activities/behaviours that were selected.
Treatment success was defined as “a reduction of at least 2 in total VSOM score at Day 3 and 28 compared to VSOM score at day 0.” A decrease of less than 2, no change, or an increase in total score was defined as treatment failure. Cats presenting an increase in any individual VSOM score were considered a treatment failure regardless of total VSOM score.
RTX was provided as a 25 μg/mL (2.4 mL) solution, formulated with polysorbate, glucose, and phosphate buffer, and diluted in saline to 1 μg/mL before instillation. Intravesical instillation: After the cat has reached an adequate anesthesia level, the perineal area was prepared using a standard aseptic technique. After preparation, a urinary catheter (type and size decided on a case by case basis) was placed using aseptic technique. Then, the urinary bladder was emptied and flushed with 20 ml of sterile saline. Once the flush solution was removed, the RTX solution was infused through the urinary catheter over 2 minutes. Once the total volume of the solution is infused, the solution was left in the urinary bladder for 20 min. At the end of this period the IVP (investigational veterinary product) solution was removed. Finally, the urinary catheter was removed, and the perineal area was flushed with 20 ml of saline. The total amount of solution removed from the bladder was recorded.
24 cats were treated and the cohorts and their respective IVP treatments are described in the table 9 below. The cohorts were populated and dosed sequentially. Cats enrolled in Cohorts 2, 3 and 4 were dosed at least 3 days after the previous cohort closed.

[2] = tested on: CGRP and SP nerve fibers innervating dog bladder; assay: Density of CGRP and SP axons in canine bladder (IHC, confocal); type: in vivo; settings: dogs
Experimental: Canine bladders from a healthy dog (control) and from dogs with intravesical application of resiniferatoxin (RTX) at 2 different doses (25 mcg and 250 mcg) were prepared for immunohistochemistry and confocal laser microscopy to quantify the axons expressing substance P (SP) and calcitonin-gene related peptide (CGRP). Confocal images were obtained at 40× magnification using a Carl Zeiss scanning confocal laser microscope (model LSM 800, Jena, Germany) with Z-stack function.

[3] = Plasma concentration of RTX (HPLC) after intravesical instillation in healthy cats; type: in vivo, cat
Experimental: To examine the effect of intravesical instillation of RTX on the bladder, 6 healthy cats, between the 2-5 years of age, were treated with either 5 (low dose), 25 (mid dose) or 50 mcg (high dose) of RTX (volume was 25 ml; concentrations were 0.2, 1, and 2 mcg/ml). These doses are considered equivalent to administration of 20, 100, or 200 mcg in a human with a volume of 100 ml. A seventh cat received saline only and served as the control. The bladders of the anesthetized cats were emptied and then flushed with sterile saline via a foley urinary catheter. Once the saline was removed, the treatment with RTX (test cats) or saline alone (control cat) was administered over 60 seconds and left in the bladder for 20 minutes.
The bladder of each cat was emptied and blood samples for pharmacokinetic analysis were collected pre-RTX treatment and at 0.5, 1, and 4 hours post RTX treatment.

[4] = tested on: cats with FIC (Feline Idiopathic Cystitis); assay: VSOM in cats with Feline Idiopathic Cystitis; type: in vivo, cat; settings: for VSOM treatment failure, number of cats / VSOM treatment failure, percent of cats: Day 28 vs Day 0
[5] = Overall (Cohorts 1-4), Day 28 vs Day 0
[6] = 6.25 μg (0.25 μg/mL), Day 0, n 6
[7] = 6.25 μg (0.25 μg/mL), Day 28, n 6
[8] = 12.5 μg (0.5 μg/mL), Day 0, n 6
[9] = 12.5 μg (0.5 μg/mL), Day 28, n 5
[10] = 12.5 μg (1.25 μg/mL), Day 0, n 6
[11] = 12.5 μg (1.25 μg/mL), Day 28, n 6

Q: For `C=C(C)[C@]12C[C@@H](C)[C@@]34O[C@](Cc5ccccc5)(O[C@@H]1[C@@H]3C=C(COC(=O)Cc1ccc(O)c(OC)c1)C[C@]1(O)C(=O)C(C)=C[C@@H]41)O2` [RTX, resiniferatoxin], which “VSOM, Maximum” value ([1]; 25 μg (1 μg/mL), Day 0, n 6) is on record?
A: The value was 12.0.

Q: And the “VSOM, Minimum” value ([1]; 25 μg (1 μg/mL), Day 28, n 5)?
A: The value was 0.0.

Q: And the “VSOM treatment failure, number of cats” value [1, 5]?
A: The value was 5 n.

Q: What about the “VSOM treatment success, number of cats” value [1, 5] of the same compound?
A: The value was 17 n.

Q: What about the “VSOM treatment success, percent of cats” value [1, 5] of the same compound?
A: Its value is “(77.2%)”.

Q: And the “CGRP and SP axons innervating the bladder body” value ([2]; 25 mcg and 250 mcg intravesical, vs control dog)?
A: Its value is “drastic reduction”.

Q: And the “density of CGRP and SP nerve fibers innervating the body, trigon, and fundus” value ([2]; 25 mcg and 250 mcg, vs control tissue)?
A: Its value is “reduced”.

Q: What about the “effect of 250 mcg in reducing density of CGRP and SP compared with 25 mcg” value ([2]; 250 mcg vs 25 mcg) of the same compound?
A: Its value is “greater effect”.

Q: And the “Plasma concentration of RTX” value ([3]; 5 mcg total intravesical, 0 h, individual cats)?
A: The value was “BQL (BQL = Below the Quantifiable Limit (<50.0 pg/mL).)”.

Q: And the “Plasma concentration of RTX” value ([3]; 5 mcg total intravesical, 0.5 h, individual cats)?
A: The value was “BQL (BQL = Below the Quantifiable Limit (<50.0 pg/mL).)”.

Q: What about the “Plasma concentration of RTX” value ([3]; 5 mcg total intravesical, 1 h, individual cats) of the same compound?
A: Its value is “BQL (BQL = Below the Quantifiable Limit (<50.0 pg/mL).)”.

Q: And the “Plasma concentration of RTX” value ([3]; 5 mcg total intravesical, 4 h, individual cats)?
A: The value was “BQL (BQL = Below the Quantifiable Limit (<50.0 pg/mL).)”.

Q: And the “Plasma concentration of RTX” value ([3]; 25 mcg total intravesical, 0 h, individual cats)?
A: The value was “BQL (BQL = Below the Quantifiable Limit (<50.0 pg/mL).)”.

Q: What about the “Plasma concentration of RTX” value ([3]; 25 mcg total intravesical, 0.5 h, individual cats) of the same compound?
A: The value was 55.5 pg/ml and 10.1* pg/ml.

Q: And the “Plasma concentration of RTX” value ([3]; 25 mcg total intravesical, 1 h, individual cats)?
A: The value was “BQL (BQL = Below the Quantifiable Limit (<50.0 pg/mL).)”.

Q: And the “Plasma concentration of RTX” value ([3]; 25 mcg total intravesical, 4 h, individual cats)?
A: Its value is “BQL (BQL = Below the Quantifiable Limit (<50.0 pg/mL).)”.

Q: What about the “Plasma concentration of RTX” value ([3]; 50 mcg total intravesical, 0 h, individual cats) of the same compound?
A: Its value is “BQL (BQL = Below the Quantifiable Limit (<50.0 pg/mL).)”.

Q: And the “Plasma concentration of RTX” value ([3]; 50 mcg total intravesical, 0.5 h, individual cats)?
A: Its value is “BQL (BQL = Below the Quantifiable Limit (<50.0 pg/mL).)”.

Q: What about the “Plasma concentration of RTX” value ([3]; 50 mcg total intravesical, 1 h, individual cats) of the same compound?
A: The value was “BQL (BQL = Below the Quantifiable Limit (<50.0 pg/mL).)”.

Q: What about the “Plasma concentration of RTX” value ([3]; 50 mcg total intravesical, 4 h, individual cats) of the same compound?
A: Its value is “BQL (BQL = Below the Quantifiable Limit (<50.0 pg/mL).)”.

Q: What about the “Plasma levels of RTX” value ([3]; all 3 groups, all time points (0, 0.5, 1, 4 h) except 0.5 h (25, 50 mcg) and 1 h (25 mcg)) of the same compound?
A: The value was “below 50 pg/mL”.

Q: And the RTX in plasma ([3]; all groups, 4 hours)?
A: Its RTX in plasma is “below quantifiable levels”.

Q: And the concentration at 1 h ([3]; cat, plasma, other: intravesical instillation, 25 mcg, 25 mcg total intravesical, 1 h, individual cats)?
A: The concentration at 1 h was 0.0135 ng/mL.

Q: And the concentration at 0.5 h ([3]; cat, plasma, other: intravesical instillation, 50 mcg, 50 mcg total intravesical, 0.5 h, individual cats)?
A: The concentration at 0.5 h was 0.00877 ng/mL.

Q: And the “VSOM, Maximum” value [4, 6]?
A: Its value is 12.0.

Q: What about the “VSOM, Mean” value [4, 6] of the same compound?
A: The value was 10.00.

Q: What about the “VSOM, Median” value [4, 6] of the same compound?
A: The value was 10.00.

Q: And the “VSOM, Minimum” value [4, 6]?
A: Its value is 8.0.

Q: And the “VSOM, Maximum” value [4, 7]?
A: Its value is 10.0.

Q: What about the “VSOM, Mean” value [4, 7] of the same compound?
A: The value was 6.00.

Q: And the “VSOM, Median” value [4, 7]?
A: Its value is 6.50.

Q: And the “VSOM, Minimum” value [4, 7]?
A: The value was 1.0.

Q: And the “VSOM, Maximum” value [4, 8]?
A: Its value is 12.0.

Q: And the “VSOM, Mean” value [4, 8]?
A: The value was 9.67.

Q: What about the “VSOM, Median” value [4, 8] of the same compound?
A: The value was 9.50.

Q: What about the “VSOM, Minimum” value [4, 8] of the same compound?
A: The value was 8.0.

Q: And the “VSOM, Maximum” value [4, 9]?
A: Its value is 4.0.

Q: And the “VSOM, Mean” value [4, 9]?
A: Its value is 1.60.

Q: What about the “VSOM, Median” value [4, 9] of the same compound?
A: The value was 1.00.

Q: And the “VSOM, Minimum” value [4, 9]?
A: The value was 0.0.

Q: What about the “VSOM, Maximum” value [4, 10] of the same compound?
A: The value was 10.0.

Q: What about the “VSOM, Mean” value [4, 10] of the same compound?
A: Its value is 9.83.

Q: What about the “VSOM, Median” value [4, 10] of the same compound?
A: Its value is 10.00.

Q: And the “VSOM, Minimum” value [4, 10]?
A: Its value is 9.0.

Q: What about the “VSOM, Maximum” value [4, 11] of the same compound?
A: The value was 6.0.

Q: And the “VSOM, Mean” value [4, 11]?
A: The value was 3.83.

Q: What about the “VSOM, Median” value [4, 11] of the same compound?
A: The value was 4.00.

Q: And the “VSOM, Minimum” value [4, 11]?
A: The value was 2.0.

Q: What about the “VSOM, Mean” value ([4]; 25 μg (1 μg/mL), Day 0, n 6) of the same compound?
A: The value was 10.00.

Q: What about the “VSOM, Median” value ([4]; 25 μg (1 μg/mL), Day 0, n 6) of the same compound?
A: Its value is 10.00.

Q: And the “VSOM, Minimum” value ([4]; 25 μg (1 μg/mL), Day 0, n 6)?
A: Its value is 9.0.

Q: And the “VSOM, Maximum” value ([4]; 25 μg (1 μg/mL), Day 28, n 5)?
A: Its value is 4.0.

Q: What about the “VSOM, Mean” value ([4]; 25 μg (1 μg/mL), Day 28, n 5) of the same compound?
A: Its value is 1.80.

Q: What about the “VSOM, Median” value ([4]; 25 μg (1 μg/mL), Day 28, n 5) of the same compound?
A: Its value is 1.00.

Q: What about the “VSOM treatment failure, number of cats” value ([4]; Cohort 1 25 μg/25 mL) of the same compound?
A: Its value is 0 n.

Q: And the “VSOM treatment failure, percent of cats” value ([4]; Cohort 1 25 μg/25 mL)?
A: The value was 0.0%.

Q: And the “VSOM treatment failure, number of cats” value ([4]; Cohort 2 6.25 μg/25 mL)?
A: The value was 3 n.

Q: And the “VSOM treatment failure, percent of cats” value ([4]; Cohort 2 6.25 μg/25 mL)?
A: The value was 50.0%.

Q: And the “VSOM treatment failure, number of cats” value ([4]; Cohort 3 12.5 μg/25 mL)?
A: Its value is 0 n.

Q: What about the “VSOM treatment failure, percent of cats” value ([4]; Cohort 3 12.5 μg/25 mL) of the same compound?
A: Its value is 0.0%.

Q: What about the “VSOM treatment failure, number of cats” value ([4]; Cohort 4 12.5 μg/10 mL) of the same compound?
A: The value was 2 n.

Q: What about the “VSOM treatment failure, percent of cats” value ([4]; Cohort 4 12.5 μg/10 mL) of the same compound?
A: Its value is 33.3%.

Q: And the “VSOM treatment failure, percent of cats” value ([4]; Overall (Cohorts 1-4))?
A: Its value is “(22.8%)”.
